Key:
HeLa = assay: Inhibition of cells growth by colorimetric assay (SRB); settings: Homo sapiens, HeLa, 48 h
How it was run: (§1)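 Colorimetric SRB read (490 nm) on triplicate wells after 48 h at 37 °C, 5% CO2. Dose range 10 to 10^−8 μg/ml; 5×10^3 cells/well pre-attached 18 h.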

SK-BR-3 = assay: as above; settings: Homo sapiens, SK-BR-3, 48 h
How it was run: as §1

LNCaP = assay: as above; settings: Homo sapiens, LNCaP, 48 h
How it was run: as §1

DU-145 = assay: as above; settings: Homo sapiens, DU-145, 48 h
How it was run: as §1

LoVo-Dox = assay: as above; settings: Homo sapiens, 48 h
How it was run: as §1

SK-MEL-28 = assay: as above; settings: Homo sapiens, SK-MEL-28, 48 h
How it was run: as §1

PANC-1 = assay: as above; settings: Homo sapiens, PANC-1, 48 h
How it was run: as §1

IGROV-1 = assay: as above; settings: Homo sapiens, IGROV-1, 48 h
How it was run: as §1

IGROV-ET = assay: as above; settings: Homo sapiens, 48 h
How it was run: as §1

HeLa-APL = assay: as above; settings: Homo sapiens, 48 h
How it was run: as §1

K-562 = assay: as above; settings: Homo sapiens, K562, 48 h
How it was run: as §1

A-549 = assay: cells; settings: Homo sapiens, A549, 48 h
How it was run: as §1

HT-29 = assay: cells; settings: Homo sapiens, HT-29, 48 h
How it was run: as §1

LoVo = assay: cells; settings: Homo sapiens, LoVo, 48 h
How it was run: as §1

SMILES: COc1c(C)cc2c(c1O)[C@H]1N[C@@H](C2)[C@H](C#N)N2C1[C@@H]1SC[C@]3(NCCc4c3[nH]c3ccc(O)cc43)C(=O)OC[C@H]2c2c3c(c(C)c(OC(C)=O)c21)OCO3 (stereo partly drawn) [compound 61]
- GI50 (HeLa; read-out: HELA GI50): 3.56 nM
- CC50 (HeLa; read-out: HELA LC50): 11.8 nM
- IC (TGI) (HeLa; read-out: HELA TGI): 6.49 nM
- GI50 (SK-BR-3; read-out: SK-BR3 GI50): 4.28 nM
- CC50 (SK-BR-3; read-out: SK-BR3 LC50): 245 nM
- IC (TGI) (SK-BR-3; read-out: SK-BR3 TGI): 9 nM
- GI50 (LNCaP; read-out: LNCAP GI50): 1.17 nM
- CC50 (LNCaP; read-out: LNCAP LC50): 6.92 nM
- IC (TGI) (LNCaP; read-out: LNCAP TGI): 2.94 nM
- GI50 (DU-145; read-out: DU145 GI50): 5.14 nM
- CC50 (DU-145; read-out: DU145 LC50): 7.97 µM
- IC (TGI) (DU-145; read-out: DU145 TGI): 9.34 nM
- GI50 (LoVo-Dox; read-out: LOVO-DOX GI50): 495 nM
- CC50 (LoVo-Dox; read-out: LOVO-DOX LC50): 13.1 µM
- IC (TGI) (LoVo-Dox; read-out: LOVO-DOX TGI): 1.76 µM
- GI50 (SK-MEL-28; read-out: MEL-28 GI50): 6.19 nM
- CC50 (SK-MEL-28; read-out: MEL-28 LC50): 60.7 nM
- IC (TGI) (SK-MEL-28; read-out: MEL-28 TGI): 0.0188 µM
- GI50 (PANC-1; read-out: PANC-1 GI50): 4.69 nM
- CC50 (PANC-1; read-out: PANC-1 LC50): 13.1 µM
- IC (TGI) (PANC-1; read-out: PANC-1 TGI): 0.0154 µM
- GI50 (IGROV-1; read-out: IGROV GI50): 4.82 nM
- CC50 (IGROV-1; read-out: IGROV LC50): 525 nM
- IC (TGI) (IGROV-1; read-out: IGROV TGI): 9.64 nM
- GI50 (IGROV-ET; read-out: IGROV-ET GI50): 225 nM
- CC50 (IGROV-ET; read-out: IGROV-ET LC50): 4.77 µM
- IC (TGI) (IGROV-ET; read-out: IGROV-ET TGI): 0.712 µM
- GI50 (HeLa-APL; read-out: HELA-APL GI50): 2.98 nM
- CC50 (HeLa-APL; read-out: HELA-APL LC50): 10.5 nM
- IC (TGI) (HeLa-APL; read-out: HELA-APL TGI): 5.6 nM
- GI50 (K-562; read-out: K562 GI50): 2.56 nM
- CC50 (K-562; read-out: K562 LC50): 642 nM
- IC (TGI) (K-562; read-out: K562 TGI): 8.62 nM
- GI50 (A-549; read-out: A549 GI50): 24.3 nM
- CC50 (A-549; read-out: A549 LC50): 104 nM
- IC (TGI) (A-549; read-out: A549 TGI): 0.0501 µM
- GI50 (HT-29; read-out: HT29 GI50): 6.58 nM
- CC50 (HT-29; read-out: HT29 LC50): 13.1 µM
- IC (TGI) (HT-29; read-out: HT29 TGI): 1.4 µM
- GI50 (LoVo; read-out: LOVO GI50): 17.1 nM
- CC50 (LoVo; read-out: LOVO LC50): 8.23 µM
- IC (TGI) (LoVo; read-out: LOVO TGI): 0.0709 µM

Source: patent publication US7767659B2, “Synthesis of naturally occurring ecteinascidins and related compounds” (Pharma Mar, S.A., priority 2002, dated 2010)
